According to ChEMBL document CHEMBL5214925, “Dual-target inhibitors of indoleamine 2, 3 dioxygenase 1 (Ido1): A promising direction in cancer immunotherapy” (Eur J Med Chem, 2022):
Blank lines part the entries; values can stand above or below the molecule they belong to.

Key:
[1] = molecular target: T1, Indoleamine 2,3-dioxygenase 1 (Homo sapiens, UniProt P14902); assay: Inhibition of IDO1 in human BT-549 cells; format: cell-based; details: pooled result: one value given for 2 cell lines, strains, targets or settings
Target sequence in this assay (P14902 whole entry): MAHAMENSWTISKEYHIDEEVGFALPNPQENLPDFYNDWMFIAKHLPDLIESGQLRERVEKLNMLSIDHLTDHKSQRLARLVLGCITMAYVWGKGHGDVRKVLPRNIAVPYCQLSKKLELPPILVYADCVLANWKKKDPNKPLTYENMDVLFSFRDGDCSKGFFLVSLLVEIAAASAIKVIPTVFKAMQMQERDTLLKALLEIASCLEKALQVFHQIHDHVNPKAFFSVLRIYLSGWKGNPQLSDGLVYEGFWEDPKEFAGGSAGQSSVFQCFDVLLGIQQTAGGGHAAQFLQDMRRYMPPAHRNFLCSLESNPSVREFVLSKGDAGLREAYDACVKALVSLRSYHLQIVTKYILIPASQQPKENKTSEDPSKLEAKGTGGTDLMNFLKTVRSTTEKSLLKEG

[2] = molecular target: T1, Indoleamine 2,3-dioxygenase 1; assay: Inhibition of IDO1 (unknown origin) using L-tryptophan as substrate incubated for 10 mins
Target sequence in this assay (P14902 whole entry): as above

[3] = molecular target: Histone deacetylase 1 (Homo sapiens, UniProt Q13547); assay: Inhibition of HDAC1 (unknown origin) using […] as substrate preincubated for 15 mins followed by substrate addition measured after 60 mins
[4] = Cytotoxicity against human colon epithelial cells incubated for 24 hrs by CCK-8 assay; format: functional, cell-based; details: Epithelial cell
[5] = system: HCT-116; assay: Cytotoxicity against human HCT-116 incubated for 24 hrs by CCK-8 assay; format: functional, cell-based; details: HCT-116, 24 h
[6] = system: HT-29; assay: Cytotoxicity against human HT-29 cells by CCK-8 method; format: functional, cell-based
[7] = molecular target: T1, Indoleamine 2,3-dioxygenase 1; assay: Inhibition of human recombinant IDO1 in human HeLa cells incubated for 48 hrs; format: cell-based
Target sequence in this assay (P14902 whole entry): as above

[8] = system: A549; assay: Cytotoxicity against human A549 cells by CCK-8 method; format: functional, cell-based
[9] = system: HeLa; assay: Cytotoxicity against human HeLa cells; format: functional; details: read-out: LC50 (the source's name)
[10] = system: CT26; assay: Antitumor activity against mouse CT26 cells allografted in nude mouse assessed as reduction in tumor volume relative to control; format: functional; set-up: scale not given: the % may be the effect or the level left
[11] = system: CT26; assay: Antitumor activity against mouse CT26 cells allografted in immunocompetent mouse assessed as tumor growth inhibition relative to control; format: functional
[12] = system: CT26; assay: Cytotoxicity against […] cells by CCK-8 method; format: functional, cell-based; details: Mus musculus
[13] = system: HCT-116; assay: Cytotoxicity against human HCT-116 cells by CCK-8 method; format: functional, cell-based
[14] = system: CT26; assay: Antitumor activity against mouse CT26 cells allografted in mouse assessed as tumor growth inhibition at 50 mg/kg; format: functional; details: read-out: TGI
[15] = Volume of distribution in Sprague-Dawley rat plasma; format: ADME, cell-free
[16] = Clearance in Sprague-Dawley rat plasma; format: ADME, cell-free
[17] = system: HCT-116; assay: Antiproliferative activity against human HCT-116 cells; format: functional, cell-based
[18] = Antiproliferative activity against mouse Lewis lung carcinoma cell line; format: functional, cell-based
[19] = Antitumor activity against Lewis Lung carcinoma cells in mouse expressing IDO1 assessed as tumor growth inhibition relative to control; format: functional
[20] = system: CT26; assay: Antiproliferative activity against mouse CT26 cells; format: functional, cell-based
[21] = molecular target: T1, Indoleamine 2,3-dioxygenase 1; assay: Inhibition of IDO1 (unknown origin)
Target sequence in this assay (P14902 whole entry): as above

[22] = molecular target: T1, Indoleamine 2,3-dioxygenase 1; assay: Inhibition of recombinant N-terminal His tagged IDO1 (unknown origin) expressed in Escherichia coli incubated for 1.5 hrs by FULOstar OMEGA plate reader method
Target sequence in this assay (P14902 whole entry): as above

[23] = molecular target: Tryptophan 2,3-dioxygenase (Homo sapiens, UniProt P48775); assay: Inhibition of recombinant C-terminal His tagged TDO (unknown origin) expressed in Escherichia coli
[24] = Antiproliferative activity against melanoma cells (unknown origin) subcutaneously xenografted in mouse model assessed as inhibition of cell growth rate at 100 mg/kg relative to control; format: functional; details: sc
[25] = Antiproliferative activity against melanoma cells (unknown origin) subcutaneously xenografted in mouse model assessed as inhibition of cell growth rate at 50 mg/kg relative to control; format: functional; details: sc
[26] = Antitumor activity against Lewis lung carcinoma cell in C57BL/6 mouse assessed as tumor growth inhibition at 60 mg/kg relative to control; format: functional; details: C57BL/6, Lewis lung carcinoma, read-out: TGI
[27] = molecular target: T1, Indoleamine 2,3-dioxygenase 1; assay: Inhibition of IDO1 in human A-172 cells; format: cell-based
Target sequence in this assay (P14902 whole entry): as above

[28] = Antitumor activity against mouse HEPA1-6 cells allografted in mouse model over expressing TDO assessed as tumor growth inhibition relative to control; format: functional
[29] = Antitumor activity against mouse HEPA1-6 cells allografted in mouse model over expressing IDO1 assessed as tumor growth inhibition relative to control; format: functional
[30] = Antitumor activity against mouse LL2 cells allografted in mouse model over expressing IDO1 assessed as tumor growth inhibition relative to control; format: functional, Lewis lung carcinoma
[31] = molecular target: T1, Indoleamine 2,3-dioxygenase 1; assay: Inhibition of IDO1 in human HeLa cells; format: cell-based
[32] = molecular target: T1, Indoleamine 2,3-dioxygenase 1; assay: Inhibition of human N-terminal His tagged recombinant IDO1 (5 to 403 residues) expressed in Escherichia coli BL21 (DE3)
[33] = Inhibition of rat liver TrxR incubated for 1 hr; format: tissue-based
[34] = Inhibition of TrxR in human HCT-116 cell lysate; format: subcellular
[35] = molecular target: T1, Indoleamine 2,3-dioxygenase 1; assay: Inhibition of IDO1 (unknown origin) using L-tryptophan as substrate at 10 uM incubated for 10 mins relative to control
Target sequence in this assay (P14902 whole entry, looked up): as the sequence (P14902 whole entry) above

Tryptophan 2,3-dioxygenase, sequence (P48775 whole entry): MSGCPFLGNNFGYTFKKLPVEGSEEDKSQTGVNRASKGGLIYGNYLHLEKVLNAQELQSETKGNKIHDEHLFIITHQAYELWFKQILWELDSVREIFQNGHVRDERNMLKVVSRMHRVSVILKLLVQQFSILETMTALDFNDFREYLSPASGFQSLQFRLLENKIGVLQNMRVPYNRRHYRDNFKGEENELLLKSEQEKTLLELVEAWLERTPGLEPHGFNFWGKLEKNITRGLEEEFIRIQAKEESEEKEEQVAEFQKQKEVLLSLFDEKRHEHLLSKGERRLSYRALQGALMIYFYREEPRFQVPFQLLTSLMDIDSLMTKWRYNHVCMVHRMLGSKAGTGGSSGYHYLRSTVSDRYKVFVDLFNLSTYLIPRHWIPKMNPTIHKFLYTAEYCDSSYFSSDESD
Histone deacetylase 1, sequence (Q13547 whole entry): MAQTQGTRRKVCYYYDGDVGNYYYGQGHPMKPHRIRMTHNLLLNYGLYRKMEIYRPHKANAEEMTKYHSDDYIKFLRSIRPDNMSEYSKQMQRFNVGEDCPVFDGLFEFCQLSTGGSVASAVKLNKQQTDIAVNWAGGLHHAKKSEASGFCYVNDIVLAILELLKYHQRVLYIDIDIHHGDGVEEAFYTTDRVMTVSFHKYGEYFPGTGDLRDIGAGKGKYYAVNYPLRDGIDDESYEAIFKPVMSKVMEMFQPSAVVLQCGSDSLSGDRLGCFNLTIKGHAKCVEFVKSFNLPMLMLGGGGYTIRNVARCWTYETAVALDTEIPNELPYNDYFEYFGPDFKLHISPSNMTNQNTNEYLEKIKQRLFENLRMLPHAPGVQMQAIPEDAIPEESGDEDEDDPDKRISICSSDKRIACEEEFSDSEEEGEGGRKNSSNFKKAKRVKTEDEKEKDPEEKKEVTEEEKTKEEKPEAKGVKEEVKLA

Structure (SMILES): COc1cc(/C=C/C(=O)N2CCC=CC2=O)cc(OC)c1OC [PIPLARTINE]
- IC50 [4]: 46.9 µM
- IC50 [5]: 6.38 µM

Structure (SMILES): O=C(NCCNc1nonc1/C(=N/O)Nc1ccc(F)c(Br)c1)c1cccc(N(CCCl)CCCl)c1
- IC50 [6]: 19 µM
- EC50 [7]: 0.27 µM
- IC50 [8]: 17 µM
- CC50 [9]: 39 µM
- Activity [10]: 28.6%
- TGI [11]: 58.2%
- IC50 [12]: 25 µM
- IC50 [13]: 25 µM

Structure (SMILES): NC(CC(=O)O)Cc1c[nH]c2cc(N(CCCl)CCCl)ccc12 (stereo unspecified)
- IC50 [17]: 63.9 µM
- IC50 [18]: 63.9 µM
- TGI [19]: 73.5%
- IC50 [20]: 63.9 µM
- IC50 [21]: 227 µM

Structure (SMILES): O[C@@H](c1cn2cncc2cc1Cl)C1CCCCC1
- IC50 [22]: 0.0096 µM
- IC50 [23]: 0.029 µM

Structure (SMILES): COc1cc(Nc2cc(NC(C)=O)cc3[nH]c(C(=O)O)cc23)cc(OC)c1OC
- inhibition in vivo at 100 mg/kg [24]: 44.7%
- inhibition in vivo at 50 mg/kg [25]: 43.2%

Structure (SMILES): NC(CC(=O)O)Cc1c[nH]c2ccc(N(CCCl)CCCl)cc12 (stereo unspecified)
- IC50 [17]: 23.7 µM
- IC50 [18]: 23.7 µM
- TGI [19]: 63.8%
- IC50 [20]: 23.7 µM
- IC50 [21]: 14 µM

Structure (SMILES): NS(=O)(=O)NCCNc1nonc1/C(=N/O)Nc1ccc(F)c(Br)c1 [EPACADOSTAT]
- inhibition in vivo at 60 mg/kg [26]: 68%
- TGI [11]: 47.5%

Structure (SMILES): O=C1c2cc(F)ccc2C(=O)c2c1nnn2-c1ccc(F)c(Cl)c1
- TGI [28]: 80%
- TGI [29]: 80%
- TGI [30]: 62.5%

Structure (SMILES): CC(C)=CCCc1c(C)ccc2c1C(=O)C(=O)C(C(C)C)=C2
- inhibition [35]: 85%

Further lines, with some results ahead:

- IC50 [1]: 10.8 µM
Structure (SMILES): Cc1ccc(C(=O)CC(=O)c2ccccc2OC(C)C)c(O)c1

- IC50 [2]: 0.73 µM
- IC50 [3]: 0.46 µM
Structure (SMILES): Cc1ccc2c(c1CCC(=O)NCCCCCC(=O)CNc1ccccc1N)C(=O)C(=O)C(C(C)C)=C2

- Vd [15]: 0.88 L/kg
- clearance [16]: 27.5 mL/min/kg
Structure (SMILES): OCCOCc1cn(CCNc2nonc2/C(=N/O)Nc2ccc(F)c(Br)c2)nn1
- inhibition in vivo at 50 mg/kg [14]: 69.7%

- IC50 [22]: 0.049 µM
- IC50 [23]: 0.078 µM
Structure (SMILES): Cn1cc(-c2ccc(NC(N)=O)cc2)c2ccc(F)cc21

- IC50 [1]: 20.6 µM
Structure (SMILES): COc1ccccc1C(=O)CC(=O)c1ccc(C)cc1O

- IC50 [27]: 37.7 µM
Structure (SMILES): CC1=C(CC(=O)c2sccc2Br)C(=O)c2ccccc2C1=O

- EC50 [31]: 1.41 µM
- IC50 [32]: 0.084 µM
- IC50 [33]: 7.89 µM
- IC50 [34]: 4.22 µM
Structure (SMILES): O=C1C=CCCN1C(=O)/C=C/c1ccccc1-c1c[nH]cn1
- IC50 [4]: 42 µM
- IC50 [5]: 0.55 µM
